Source: patent publication US20040219191A1, “Use of a dopamine agonist with a short half-life for treating illnesses which can be treated by dopaminergic means” (priority 2000, published 2004)

Assay: Water solubility
Conditions: lisuride or a salt thereof

With `CCN(CC)C(=O)N[C@H]1C=C2c3cccc4[nH]cc(c34)C[C@H]2N(C)C1` [lisuride, 3-(9,10-didehydro-6-methyl-8α-ergolinyl)-1,1-diethyl urea] the water solubility was “good water solubility”.
